In the supplement of paper PMC10883282:

Assays:
Experiment in all cases: relative viability vs DMSO control (72 h) (fraction); higher = more viable cells
SW872 = tested on: SW872
How it was run: (§1)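 A 5 µM positive control and 0.1% DMSO vehicle ran alongside sarcoma cell lines seeded in 384-well plates to reach 80–90% confluence. Serially diluted compound, 2.5 µl from source plates of 10 mM to 0.0002 mM, was added after 24 h, and the plates were held 72 h at 37 °C, 5% CO2. Relative viability was worked out from ATPLite readings as percent growth averaged over up to triplicate wells. The values were rescaled so that 1 is full and 0 is none.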

VA-ES-BJ = tested on: VA-ES-BJ
How it was run: as §1

SW1353 = tested on: SW1353
How it was run: as §1

A204 = tested on: A204
How it was run: as §1

SK-LMS-1 = tested on: SK-LMS-1
How it was run: as §1

G401 = tested on: G401
How it was run: as §1

KHOS-240S = tested on: KHOS-240S
How it was run: as §1

RD = tested on: RD
How it was run: as §1

HS729 = tested on: HS729
How it was run: as §1

SW982 = tested on: SW982
How it was run: as §1

MES-SA = tested on: MES-SA
How it was run: as §1

SK-ES-1 = tested on: SK-ES-1
How it was run: as §1

Cc1ccc(C(=O)OCc2ccc([C@@H](CN)C(=O)Nc3ccc4cnccc4c3)cc2)c(C)c1 [Netarsudil]
Details | relative viability
A204, 0.00017 µM | 1.03
A204, 0.00051 µM | 1.05
A204, 0.00152 µM | 1.04
A204, 0.00457 µM | 1.03
A204, 0.01372 µM | 1.01
A204, 0.04115 µM | 0.963
A204, 0.1235 µM | 0.841
A204, 0.3704 µM | 0.82
A204, 1.111 µM | 0.703
A204, 3.333 µM | 0.609
A204, 10 µM | 0.00737
G401, 0.00017 µM | 0.956
G401, 0.00051 µM | 0.985
G401, 0.00152 µM | 0.977
G401, 0.00457 µM | 0.996
G401, 0.01372 µM | 0.9802
G401, 0.04115 µM | 0.957
G401, 0.1235 µM | 0.968
G401, 0.3704 µM | 0.973
G401, 1.111 µM | 0.941
G401, 3.333 µM | 0.946
G401, 10 µM | 0.00503
HS729, 0.00017 µM | 0.874
HS729, 0.00051 µM | 0.85
HS729, 0.00152 µM | 0.899
HS729, 0.00457 µM | 0.852
HS729, 0.01372 µM | 0.87
HS729, 0.04115 µM | 0.896
HS729, 0.1235 µM | 0.876
HS729, 0.3704 µM | 0.844
HS729, 1.111 µM | 0.812
HS729, 3.333 µM | 0.8113
HS729, 10 µM | 0.224
KHOS-240S, 0.00017 µM | 1.06
KHOS-240S, 0.00051 µM | 1.07
KHOS-240S, 0.00152 µM | 1.05
KHOS-240S, 0.00457 µM | 1.05
KHOS-240S, 0.01372 µM | 1.01
KHOS-240S, 0.04115 µM | 1.03
KHOS-240S, 0.1235 µM | 0.903
KHOS-240S, 0.3704 µM | 0.768
KHOS-240S, 1.111 µM | 0.686
KHOS-240S, 3.333 µM | 0.541
KHOS-240S, 10 µM | 0.0141
MES-SA, 0.00017 µM | 0.89
MES-SA, 0.00051 µM | 0.901
MES-SA, 0.00152 µM | 0.892
MES-SA, 0.00457 µM | 0.905
MES-SA, 0.01372 µM | 0.921
MES-SA, 0.04115 µM | 0.884
MES-SA, 0.1235 µM | 0.85
MES-SA, 0.3704 µM | 0.775
MES-SA, 1.111 µM | 0.672
MES-SA, 3.333 µM | 0.402
MES-SA, 10 µM | 0.00233
RD, 0.00017 µM | 1.09
RD, 0.00051 µM | 1.1
RD, 0.00152 µM | 1.12
RD, 0.00457 µM | 1.11
RD, 0.01372 µM | 1.1
RD, 0.04115 µM | 1.14
RD, 0.1235 µM | 1.13
RD, 0.3704 µM | 1.15
RD, 1.111 µM | 1.15
RD, 3.333 µM | 0.976
RD, 10 µM | 0.0128
SK-ES-1, 0.00017 µM | 1.01
SK-ES-1, 0.00051 µM | 0.999
SK-ES-1, 0.00152 µM | 1.04
SK-ES-1, 0.00457 µM | 1.04
SK-ES-1, 0.01372 µM | 1.03
SK-ES-1, 0.04115 µM | 1.04
SK-ES-1, 0.1235 µM | 1.03
SK-ES-1, 0.3704 µM | 1.04
SK-ES-1, 1.111 µM | 1.04
SK-ES-1, 3.333 µM | 0.761
SK-ES-1, 10 µM | 0.0124
SK-LMS-1, 0.00017 µM | 1.03
SK-LMS-1, 0.00051 µM | 1.05
SK-LMS-1, 0.00152 µM | 1.02
SK-LMS-1, 0.00457 µM | 1
SK-LMS-1, 0.01372 µM | 1.043
SK-LMS-1, 0.04115 µM | 1.03
SK-LMS-1, 0.1235 µM | 1.07
SK-LMS-1, 0.3704 µM | 0.989
SK-LMS-1, 1.111 µM | 0.799
SK-LMS-1, 3.333 µM | 0.574
SK-LMS-1, 10 µM | 0.0101
SW872, 0.00017 µM | 0.997
SW872, 0.00051 µM | 1.01
SW872, 0.00152 µM | 1.01
SW872, 0.00457 µM | 0.988
SW872, 0.01372 µM | 1.01
SW872, 0.04115 µM | 0.955
SW872, 0.1235 µM | 0.961
SW872, 0.3704 µM | 0.82
SW872, 1.111 µM | 0.74
SW872, 3.333 µM | 0.637
SW872, 10 µM | 0.000233
SW982, 0.00017 µM | 1.06
SW982, 0.00051 µM | 1.03
SW982, 0.00152 µM | 1.03
SW982, 0.00457 µM | 1.04
SW982, 0.01372 µM | 1.05
SW982, 0.04115 µM | 1.032
SW982, 0.1235 µM | 0.98
SW982, 0.3704 µM | 0.897
SW982, 1.111 µM | 0.841
SW982, 3.333 µM | 0.749
SW982, 10 µM | 0.0152
SW1353, 0.00017 µM | 0.939
SW1353, 0.00051 µM | 0.945
SW1353, 0.00152 µM | 0.946
SW1353, 0.00457 µM | 0.944
SW1353, 0.01372 µM | 0.926
SW1353, 0.04115 µM | 0.946
SW1353, 0.1235 µM | 0.898
SW1353, 0.3704 µM | 0.7532
SW1353, 1.111 µM | 0.628
SW1353, 3.333 µM | 0.553
SW1353, 10 µM | 0.0095
VA-ES-BJ, 0.00017 µM | 1.02
VA-ES-BJ, 0.00051 µM | 1
VA-ES-BJ, 0.00152 µM | 0.998
VA-ES-BJ, 0.00457 µM | 1.02
VA-ES-BJ, 0.01372 µM | 1.01
VA-ES-BJ, 0.04115 µM | 0.991
VA-ES-BJ, 0.1235 µM | 0.99
VA-ES-BJ, 0.3704 µM | 0.998
VA-ES-BJ, 1.111 µM | 1.03
VA-ES-BJ, 3.333 µM | 1.03
VA-ES-BJ, 10 µM | 0.659
